In patent US7994331B2, “Heterocycle-substituted benzimidazole derivative” (MSD K.K., priority 2005, dated 2011):

Biological target: T1, recombinant human liver GK (FLAG fusion protein) (Homo sapiens, UniProt P35557)
T1 construct: made in house; host or cells: E. coli
T1 sequence (P35557 1-466 isoform P35557-2): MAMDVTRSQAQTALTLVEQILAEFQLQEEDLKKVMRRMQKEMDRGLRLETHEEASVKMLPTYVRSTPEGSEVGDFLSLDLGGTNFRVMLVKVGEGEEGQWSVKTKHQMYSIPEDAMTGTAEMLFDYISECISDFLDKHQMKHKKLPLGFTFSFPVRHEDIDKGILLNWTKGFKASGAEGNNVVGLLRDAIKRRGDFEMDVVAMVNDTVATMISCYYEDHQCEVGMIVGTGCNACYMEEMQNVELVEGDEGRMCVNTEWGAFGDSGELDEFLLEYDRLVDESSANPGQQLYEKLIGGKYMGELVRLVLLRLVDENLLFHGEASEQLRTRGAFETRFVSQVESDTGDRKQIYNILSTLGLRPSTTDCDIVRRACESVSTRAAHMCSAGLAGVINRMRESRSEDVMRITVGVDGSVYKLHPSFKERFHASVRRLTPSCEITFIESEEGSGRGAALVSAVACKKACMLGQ
Test: Glucokinase (GK) activation assay, G6PDH-coupled Thio-NADH absorbance at 405 nm
Format: biochemical
Conditions: final glucose concentration 2.5 mM, 30° C.; for EC50: GK activation; for Emax: OD level of DMSO control set as 100%
Description: The excellent glucokinase-activating effect of the compounds of formula (I) may be determined by a method described in references (for example, Diabetes, Vol. 45, pp. 1671-1677, 1996), or in accordance with it.
The glucokinase activity may be determined not by directly measuring glucose-6-phosphate but by measuring the level of Thio-NADH, which is produced when a reporter enzyme, glucose-6-phosphate dehydrogenase produces phosphogluconolactone from glucose-6-phosphate, and based on the level, the level of glucokinase activation may be determined.
In this assay, used was a recombinant human liver GK, which was expressed by E. coli as a FLAG fusion protein therein and was purified by ANTIFLAG M2 AFFINITY GEL (Sigma).
Using a flat-bottomed 96-well plate, the assay was carried out at 30° C. 69 μl of an assay buffer (25 mM Hepes Buffer/pH=7.2, 2 mM MgCl2, 1 mM ATP, 0.5 mM TNAD, 1 mM dithiothreitol) was put into the plate, and 1 μl of a DMSO solution of the compound or DMSO alone as a control was added thereto. Next, 20 μl of an enzyme mixture (FLAG-GK, 20 U/ml G6PDH) cooled in ice was added to it, and 10 μl of a substrate, 25 mM glucose was added to it, and the reaction was initiated (final glucose concentration=2.5 mM).
After the start of the reaction, the increase in the absorbance at 405 nm was measured for 12 minutes at intervals of 30 seconds, and the increase for the first 5 minutes was used for evaluating the compound tested. FLAG-GK was added so that the absorbance increase after 5 minutes in the presence of 1% DMSO could be from 0.04 to 0.06.
The OD level of the DMSO control was set as 100%; and the OD level of the test compound at different concentrations was determined. From the OD level at each concentration, Emax (%) and EC50 (μM) were computed and used as the index of the GK-activating potency of the compound.

CCS(=O)(=O)c1ccc(Oc2cc3[nH]c(-c4ccccn4)nc3cc2C2CCCS2)cc1 (centres unmarked) [Example 29-1, 5-(tetrahydro-2-thienyl)-6-(4-(ethylsulfonyl)phenoxy)-2-pyridin-2-yl-1H-benzimidazole]
EC50: 600 nM

Cc1nc(-c2ccc(Oc3cc4[nH]c(-c5ccccn5)nc4cc3C3CCCO3)cn2)no1 (centres unmarked) [Example 17, 5-(tetrahydrofuran-2-yl)-6-(6-(5-methyl-(1,2,4)oxadiazol-3-yl)-pyridin-3-yloxy)-2-pyridin-2-yl-1H-benzimidazole]
EC50: 1400 nM

CCS(=O)(=O)c1ccc(Oc2cc3[nH]c(-c4ccccn4)nc3cc2C2CCOC2=O)cc1 (centres unmarked) [Example 36, 3-(6-(4-(ethylsulfonyl)phenoxy)-2-pyridin-2-yl-1H-benzimidazol-5-yl)dihydrofuran-2(3H)-one]
EC50: 880 nM
Emax: 978%

CCS(=O)(=O)c1ccc(Oc2cc3[nH]c(-c4ccccn4)nc3cc2C2OC(=O)N(C)C2=O)cc1 (centres unmarked) [Example 31, 5-(6-(4-(ethylsulfonyl)phenoxy)-2-pyridin-2-yl-1H-benzimidazol-5-yl)-3-methyl-1,3-oxazolidine-2,4-dione]
EC50: 1580 nM

CCS(=O)(=O)c1ccc(Oc2cc3[nH]c(-c4cnccn4)nc3cc2C2CCC(=O)O2)cc1 (centres unmarked) [Example 23, 5-(6-(4-(ethylsulfonyl)phenoxy)-2-pyrazin-2-yl-1H-benzimidazol-5-yl)dihydrofuran-2(3H)-one]
EC50: 1420 nM

CCS(=O)(=O)c1ccc(Oc2cc3[nH]c(-c4ccccn4)nc3cc2C2OCCO2)cc1 [Example 1, 5-(1,3-dioxolan-2-yl)-6-(4-(ethylsulfonyl)phenoxy)-2-pyridin-2-yl-1H-benzimidazole]
EC50: 1180 nM
Emax: 923%
